Reference: the NIST ThermoML archive (doi:10.1021/je8000975)
Values joined by “and” are separate entries in the source; they are usually repeats but may differ in a detail not shown here. Equal values may be shown once. ± gives the expanded uncertainty stated by the source.

Key:
[1] = Liquid; for speed of sound: Sing-around technique in a fixed-path interferometer
[2] = xn = mol fraction of the nth substance listed; conditions: 101 kPa, Liquid

CCOCCO [2-ethoxyethan-1-ol]
mass density ([1]; 293.15 K): 929.545 ± 0.32 kg/m3
speed of sound ([1]; 293.15 K): 1319.9 ± 0.84 m/s
mass density ([1]; 298.15 K): 925.027 ± 0.33 kg/m3
speed of sound ([1]; 298.15 K): 1301.7 ± 0.83 m/s
mass density ([1]; 303.15 K): 920.457 ± 0.33 kg/m3
speed of sound ([1]; 303.15 K): 1284.2 ± 0.82 m/s

CCOCCO [2-ethoxyethan-1-ol] + COCCO
mass density ([2]; 293.15 K, x2 = 0.1511): 933.958 ± 0.32 kg/m3
mass density ([2]; 293.15 K, x2 = 0.2029): 935.531 ± 0.32 kg/m3
mass density ([2]; 293.15 K, x2 = 0.3043): 938.709 ± 0.31 kg/m3
mass density ([2]; 293.15 K, x2 = 0.3503): 940.193 ± 0.31 kg/m3
mass density ([2]; 293.15 K, x2 = 0.5024): 945.313 ± 0.31 kg/m3
mass density ([2]; 293.15 K, x2 = 0.5514): 947.031 ± 0.3 kg/m3
mass density ([2]; 293.15 K, x2 = 0.6992): 952.448 ± 0.3 kg/m3
mass density ([2]; 293.15 K, x2 = 0.7482): 954.326 ± 0.3 kg/m3
mass density ([2]; 293.15 K, x2 = 0.798): 956.272 ± 0.29 kg/m3
mass density ([2]; 293.15 K, x2 = 0.7992): 956.321 ± 0.29 kg/m3
mass density ([2]; 293.15 K, x2 = 0.8504): 958.373 ± 0.29 kg/m3
mass density ([2]; 293.15 K, x2 = 0.8997): 960.393 ± 0.29 kg/m3
mass density ([2]; 293.15 K, x2 = 0.9488): 962.456 ± 0.29 kg/m3
mass density ([2]; 298.15 K, x2 = 0.0536): 926.563 ± 0.33 kg/m3
mass density ([2]; 298.15 K, x2 = 0.1039): 928.032 ± 0.32 kg/m3
mass density ([2]; 298.15 K, x2 = 0.151): 929.431 ± 0.32 kg/m3
mass density ([2]; 298.15 K, x2 = 0.1517): 929.455 ± 0.32 kg/m3
mass density ([2]; 298.15 K, x2 = 0.3523): 935.724 ± 0.32 kg/m3
mass density ([2]; 298.15 K, x2 = 0.3757): 936.488 ± 0.32 kg/m3
mass density ([2]; 298.15 K, x2 = 0.4166): 937.846 ± 0.31 kg/m3
mass density ([2]; 298.15 K, x2 = 0.4509): 939.002 ± 0.31 kg/m3
mass density ([2]; 298.15 K, x2 = 0.5507): 942.46 ± 0.31 kg/m3
mass density ([2]; 298.15 K, x2 = 0.5981): 944.155 ± 0.31 kg/m3
mass density ([2]; 298.15 K, x2 = 0.7494): 949.818 ± 0.3 kg/m3
mass density ([2]; 298.15 K, x2 = 0.7987): 951.747 ± 0.3 kg/m3
mass density ([2]; 298.15 K, x2 = 0.8423): 953.488 ± 0.3 kg/m3
mass density ([2]; 298.15 K, x2 = 0.8475): 953.698 ± 0.3 kg/m3
mass density ([2]; 298.15 K, x2 = 0.9002): 955.855 ± 0.3 kg/m3
mass density ([2]; 298.15 K, x2 = 0.9483): 957.869 ± 0.29 kg/m3
mass density ([2]; 303.15 K, x2 = 0.1537): 924.945 ± 0.33 kg/m3
mass density ([2]; 303.15 K, x2 = 0.1543): 924.961 ± 0.33 kg/m3
mass density ([2]; 303.15 K, x2 = 0.2017): 926.398 ± 0.33 kg/m3
mass density ([2]; 303.15 K, x2 = 0.2495): 927.868 ± 0.32 kg/m3
mass density ([2]; 303.15 K, x2 = 0.3013): 929.498 ± 0.32 kg/m3
mass density ([2]; 303.15 K, x2 = 0.402): 932.768 ± 0.32 kg/m3
mass density ([2]; 303.15 K, x2 = 0.4505): 934.39 ± 0.32 kg/m3
mass density ([2]; 303.15 K, x2 = 0.4985): 936.037 ± 0.32 kg/m3
mass density ([2]; 303.15 K, x2 = 0.5505): 937.856 ± 0.31 kg/m3
mass density ([2]; 303.15 K, x2 = 0.5979): 939.553 ± 0.31 kg/m3
mass density ([2]; 303.15 K, x2 = 0.6504): 941.473 ± 0.31 kg/m3
mass density ([2]; 303.15 K, x2 = 0.6979): 943.248 ± 0.31 kg/m3
mass density ([2]; 303.15 K, x2 = 0.7488): 945.193 ± 0.31 kg/m3
mass density ([2]; 303.15 K, x2 = 0.7998): 947.188 ± 0.3 kg/m3
mass density ([2]; 303.15 K, x2 = 0.9001): 951.244 ± 0.3 kg/m3

COCCO [2-methoxyethan-1-ol]
mass density ([1]; 293.15 K): 964.656 ± 0.29 kg/m3
speed of sound ([1]; 293.15 K): 1359.2 ± 0.85 m/s
mass density ([1]; 298.15 K): 960.088 ± 0.29 kg/m3
speed of sound ([1]; 298.15 K): 1341.6 ± 0.84 m/s
mass density ([1]; 303.15 K): 955.471 ± 0.3 kg/m3
speed of sound ([1]; 303.15 K): 1324.3 ± 0.84 m/s

CCCOCCO [2-propoxyethanol]
mass density ([1]; 293.15 K): 911.515 ± 0.56 kg/m3
speed of sound ([1]; 293.15 K): 1316.6 ± 1.2 m/s
mass density ([1]; 298.15 K): 907.151 ± 0.57 kg/m3
speed of sound ([1]; 298.15 K): 1298.6 ± 1.2 m/s
mass density ([1]; 303.15 K): 902.736 ± 0.58 kg/m3
speed of sound ([1]; 303.15 K): 1281.1 ± 1.2 m/s

CCCOCCO [2-propoxyethanol] + CCCCOCCCC
mass density ([2]; 293.15 K, x1 = 0.0625): 774.485 ± 0.51 kg/m3
mass density ([2]; 293.15 K, x1 = 0.1231): 780.612 ± 0.51 kg/m3
mass density ([2]; 293.15 K, x1 = 0.1827): 786.927 ± 0.5 kg/m3
mass density ([2]; 293.15 K, x1 = 0.2394): 793.199 ± 0.5 kg/m3
mass density ([2]; 293.15 K, x1 = 0.2492): 794.319 ± 0.49 kg/m3
mass density ([2]; 293.15 K, x1 = 0.2944): 799.55 ± 0.49 kg/m3
mass density ([2]; 293.15 K, x1 = 0.2949): 799.613 ± 0.49 kg/m3
mass density ([2]; 293.15 K, x1 = 0.3486): 806.069 ± 0.49 kg/m3
mass density ([2]; 293.15 K, x1 = 0.4023): 812.805 ± 0.48 kg/m3
mass density ([2]; 293.15 K, x1 = 0.4544): 819.603 ± 0.48 kg/m3
mass density ([2]; 293.15 K, x1 = 0.4567): 819.921 ± 0.48 kg/m3
mass density ([2]; 293.15 K, x1 = 0.5556): 833.65 ± 0.47 kg/m3
mass density ([2]; 293.15 K, x1 = 0.599): 840.02 ± 0.47 kg/m3
mass density ([2]; 293.15 K, x1 = 0.6019): 840.448 ± 0.47 kg/m3
mass density ([2]; 293.15 K, x1 = 0.6498): 847.778 ± 0.47 kg/m3
mass density ([2]; 293.15 K, x1 = 0.6536): 848.363 ± 0.47 kg/m3
mass density ([2]; 293.15 K, x1 = 0.7431): 862.909 ± 0.46 kg/m3
mass density ([2]; 293.15 K, x1 = 0.8304): 878.188 ± 0.45 kg/m3
mass density ([2]; 293.15 K, x1 = 0.8329): 878.643 ± 0.45 kg/m3
mass density ([2]; 293.15 K, x1 = 0.875): 886.46 ± 0.45 kg/m3
mass density ([2]; 293.15 K, x1 = 0.9173): 894.637 ± 0.45 kg/m3
mass density ([2]; 293.15 K, x1 = 0.9567): 902.506 ± 0.44 kg/m3
mass density ([2]; 293.15 K, x1 = 0.9568): 902.528 ± 0.44 kg/m3
mass density ([2]; 298.15 K, x1 = 0.0551): 769.407 ± 0.52 kg/m3
mass density ([2]; 298.15 K, x1 = 0.0626): 770.132 ± 0.52 kg/m3
mass density ([2]; 298.15 K, x1 = 0.1039): 774.248 ± 0.51 kg/m3
mass density ([2]; 298.15 K, x1 = 0.1246): 776.381 ± 0.51 kg/m3
mass density ([2]; 298.15 K, x1 = 0.1556): 779.622 ± 0.51 kg/m3
mass density ([2]; 298.15 K, x1 = 0.2367): 788.484 ± 0.5 kg/m3
mass density ([2]; 298.15 K, x1 = 0.2393): 788.779 ± 0.5 kg/m3
mass density ([2]; 298.15 K, x1 = 0.2922): 794.872 ± 0.5 kg/m3
mass density ([2]; 298.15 K, x1 = 0.3545): 802.367 ± 0.49 kg/m3
mass density ([2]; 298.15 K, x1 = 0.4014): 808.252 ± 0.49 kg/m3
mass density ([2]; 298.15 K, x1 = 0.4031): 808.491 ± 0.49 kg/m3
mass density ([2]; 298.15 K, x1 = 0.455): 815.247 ± 0.48 kg/m3
mass density ([2]; 298.15 K, x1 = 0.5006): 821.438 ± 0.48 kg/m3
mass density ([2]; 298.15 K, x1 = 0.5043): 821.944 ± 0.48 kg/m3
mass density ([2]; 298.15 K, x1 = 0.5521): 828.692 ± 0.48 kg/m3
mass density ([2]; 298.15 K, x1 = 0.6483): 843.112 ± 0.47 kg/m3
mass density ([2]; 298.15 K, x1 = 0.6976): 850.944 ± 0.47 kg/m3
mass density ([2]; 298.15 K, x1 = 0.6984): 851.074 ± 0.47 kg/m3
mass density ([2]; 298.15 K, x1 = 0.6993): 851.218 ± 0.47 kg/m3
mass density ([2]; 298.15 K, x1 = 0.7502): 859.679 ± 0.46 kg/m3
mass density ([2]; 298.15 K, x1 = 0.7902): 866.584 ± 0.46 kg/m3
mass density ([2]; 298.15 K, x1 = 0.8325): 874.153 ± 0.46 kg/m3 and 874.166 ± 0.46 kg/m3
mass density ([2]; 298.15 K, x1 = 0.9152): 889.815 ± 0.45 kg/m3
mass density ([2]; 298.15 K, x1 = 0.9163): 890.027 ± 0.45 kg/m3
mass density ([2]; 298.15 K, x1 = 0.9571): 898.214 ± 0.45 kg/m3
mass density ([2]; 298.15 K, x1 = 0.9581): 898.407 ± 0.45 kg/m3
mass density ([2]; 303.15 K, x1 = 0.0645): 765.959 ± 0.52 kg/m3
mass density ([2]; 303.15 K, x1 = 0.1249): 772.015 ± 0.52 kg/m3
mass density ([2]; 303.15 K, x1 = 0.1826): 778.083 ± 0.51 kg/m3
mass density ([2]; 303.15 K, x1 = 0.2383): 784.22 ± 0.51 kg/m3 and 784.216 ± 0.51 kg/m3
mass density ([2]; 303.15 K, x1 = 0.3481): 797.121 ± 0.5 kg/m3
mass density ([2]; 303.15 K, x1 = 0.4032): 804.021 ± 0.49 kg/m3
mass density ([2]; 303.15 K, x1 = 0.4542): 810.67 ± 0.49 kg/m3
mass density ([2]; 303.15 K, x1 = 0.4567): 810.994 ± 0.49 kg/m3
mass density ([2]; 303.15 K, x1 = 0.5058): 817.67 ± 0.49 kg/m3
mass density ([2]; 303.15 K, x1 = 0.5547): 824.595 ± 0.48 kg/m3
mass density ([2]; 303.15 K, x1 = 0.5548): 824.612 ± 0.48 kg/m3
mass density ([2]; 303.15 K, x1 = 0.5997): 831.213 ± 0.48 kg/m3
mass density ([2]; 303.15 K, x1 = 0.6542): 839.567 ± 0.47 kg/m3
mass density ([2]; 303.15 K, x1 = 0.6988): 846.673 ± 0.47 kg/m3
mass density ([2]; 303.15 K, x1 = 0.7434): 854.06 ± 0.47 kg/m3
mass density ([2]; 303.15 K, x1 = 0.7899): 862.072 ± 0.46 kg/m3
mass density ([2]; 303.15 K, x1 = 0.8319): 869.613 ± 0.46 kg/m3
mass density ([2]; 303.15 K, x1 = 0.8764): 877.879 ± 0.46 kg/m3
mass density ([2]; 303.15 K, x1 = 0.9168): 885.687 ± 0.46 kg/m3 and 885.692 ± 0.46 kg/m3
mass density ([2]; 303.15 K, x1 = 0.9553): 893.42 ± 0.45 kg/m3
mass density ([2]; 303.15 K, x1 = 0.9575): 893.858 ± 0.45 kg/m3
